Results as given in paper PMC8248988, “A signal capture and proofreading mechanism for the KDEL-receptor explains selectivity and dynamic range in ER retrieval” (eLife, 2021).

Test system: ERP44
Test: ER chaperone secretion assay, ERP44
Format: cell-based, human
Description: Figure 1. ER retrieval signal abundance and affinity are not correlated. (a) Sequence logos for ER resident proteins with C-terminal KDEL retrieval signals and variants thereof calculated using frequency or protein abundance ([Itzhak et al., 2017]; [Itzhak et al., 2016]). (b) Combined cellular concentrations of ER resident proteins with canonical KDEL, RDEL, and HDEL retrieval sequences in HeLa cells and mouse brain. (c) Competition binding assays for [^3H]-TAEHDEL and unlabelled TAEKDEL, TAERDEL, and TAEHDEL to the KDEL receptor. IC50 values for the competing peptides were used to calculate the apparent KDwith the Cheng-Prusoff equation ([Cheng and Prusoff, 1973]). (d) Endogenous KDEL receptor redistribution was measured in COS-7 cells in the absence (-ligand) or presence of K/R/H/A/DDEL (mScarlet-xDEL^sec). TGN46 was used as a Golgi marker. Scale bar is 10 µm. (e) The mean difference for K/R/H/A/DDEL comparisons against the shared no ligand control are shown as Cummings estimation plots. The individual data points for the fraction of KDEL receptor fluorescence in the Golgi are plotted on the upper axes with sample sizes and p values. Figure 1—source data 1. Source data for the ligand-induced KDELR receptor retrieval assays in Figure 1e. Figure 1—figure supplement 1. Abundance of ER resident proteins and chaperones in human cells and mouse brain. (a) The mean concentration of ER resident chaperones with the indicated ER retrieval sequence variant is plotted in the bar graph ([Itzhak et al., 2017]; [Itzhak et al., 2016]). […] Endogenous ER chaperone secretion was measured by western blotting after challenge with different retrieval signals, and plotted as a bar graph showing mean ± SEM (n = 3). […] (a) Distribution of human KDELR1 and (b) KDELR2 was measured in COS-7 cells in the absence (-ligand) or presence of K/R/H/A/DDEL retrieval signals (K/R/H/A/DDEL^sec). […] The fraction of KDEL receptor localised to the Golgi was measured before (no ligand) and after challenge with different retrieval signals as indicated. […]

With “ADEL [pcDNA3.1 hGHss-mScarlet-H. sapiens BiP639-654K651A (ADEL^SEC), secreted mScarlet fusion with human BiP C-terminus, ADEL signal]” the “ERP44 secretion after challenge with retrieval signal” value (“ERP44 secretion after challenge” below) (mean, HeLa S3, 24 hr, Western blot densitometry) was 11.8, the “ERP44 secretion after challenge” value (replicate 1) was 8.7 and the “ERP44 secretion after challenge” value (replicate 2) was 14.9.
